According to US4233296A, “11β-Substituted-Δ^4,9 -estradienes” (Roussel Uclaf, priority 1977, dated 1980):

Columns and labels:
[1] = target: T1, specific uterine reception of progesterone (progesterone receptor, uterus cytosol) (Oryctolagus cuniculus, UniProt P06186); assay: Progestomimetic activity: hormonal receptor method, displacement of tritiated 17,21-dimethyl-19-nor-Δ4,9-pregnadiene-3,20-dione in uterus cytosol; type: binding, rabbit; details: for affinity for uterine progesterone receptor compared with progesterone (in words): conclusion from Table VI; for ARL (relative affinity of the test product): progesterone = 100, from CP and CX (concentrations inhibiting by 50% the fixation of tritiated product R), immature rabbit uterus cytosol, 0° C., 2 hours
T1 construct: the uterus was removed and homogenized in a buffered solution; from tissue; host or cells: uterus cytosol (105,000 g supernatant) of estradiol-primed immature rabbits
T1 sequence (P06186 1-930): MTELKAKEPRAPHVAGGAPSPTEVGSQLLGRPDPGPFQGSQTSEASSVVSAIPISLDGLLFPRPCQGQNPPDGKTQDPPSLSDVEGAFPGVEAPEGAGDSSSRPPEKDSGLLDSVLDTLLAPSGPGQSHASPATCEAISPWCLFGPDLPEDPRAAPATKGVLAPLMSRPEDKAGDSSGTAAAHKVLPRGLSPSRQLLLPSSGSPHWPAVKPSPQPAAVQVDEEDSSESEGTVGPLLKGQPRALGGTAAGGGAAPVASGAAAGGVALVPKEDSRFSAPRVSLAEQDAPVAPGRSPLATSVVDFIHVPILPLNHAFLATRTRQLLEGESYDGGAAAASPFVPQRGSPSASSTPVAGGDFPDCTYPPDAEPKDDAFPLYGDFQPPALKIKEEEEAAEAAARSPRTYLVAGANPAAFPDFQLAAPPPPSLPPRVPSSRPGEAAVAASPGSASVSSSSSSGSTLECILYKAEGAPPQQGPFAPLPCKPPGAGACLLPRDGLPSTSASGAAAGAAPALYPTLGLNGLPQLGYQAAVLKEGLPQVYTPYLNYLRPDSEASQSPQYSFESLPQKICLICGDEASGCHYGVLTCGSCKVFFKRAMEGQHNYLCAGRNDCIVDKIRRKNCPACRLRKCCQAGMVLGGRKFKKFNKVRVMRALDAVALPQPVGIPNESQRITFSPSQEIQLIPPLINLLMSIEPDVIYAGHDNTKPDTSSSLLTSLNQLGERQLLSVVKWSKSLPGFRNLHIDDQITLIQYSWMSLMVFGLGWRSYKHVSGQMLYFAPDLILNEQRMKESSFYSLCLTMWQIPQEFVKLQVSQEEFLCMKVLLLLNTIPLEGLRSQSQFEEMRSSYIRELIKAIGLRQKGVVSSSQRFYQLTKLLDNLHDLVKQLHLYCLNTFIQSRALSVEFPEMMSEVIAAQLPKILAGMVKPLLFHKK
Protocol: The progestomimetic activity was determined for 11β-vinyl-17α-methyl-17β-acetyl-Δ^4,9 -estradiene-3-one [product A], 11β-vinyl-17α-acetoxy-17β-acetyl-Δ^4,9 -estradiene-3-one [product B] and 11β-vinyl-17α-ethynyl-Δ^4,9 -estradiene-17α-ol-3-one [product C] was determined by the hormonal receptor method of Raynaud et al [J. Ster. Biochem., Vol. 6 (1975), p-615-622 and Physiology and Genetics of Reproduction, part A (1975), p. 143-160]. Immature rabbits received subcutaneously 25γ of estradiol and 5 days later, the animals were sacrificed and the uterus was removed and homogenized in a buffered solution of 10 mm of tromethamine, 0.25 M of saccharose and a pH of 7.4 with hydrochloric acid. The homogenate was centrifuged at 105,000 g per hour and the surnageant or cytosol was adjusted to a dilution of 1/50 (weight/volume). […] The radioactivity of the tritiated product R was determined after 2 hours by the technique of adsorption on carbon-dextran (1.25-0.625%). The curves representing the percentage of tritiated product R as a function of the log of the concentration, of cold product R, of progesterone or the test products and the I50 straight line parallel to the axis of the abcisses and ordinates were plotted. [formula] B/T max. is the percentage of tied tritiated product R when the product is not added and B/T min. is the percentage of tied tritiated product R when the maximum amount of cold product R is added. The intersections of these I50 straight lines and the curves permit the determination of the values: CP - concentration of cold progesterone which inhibits by 50% the fixation of the tritiated product R and CX-concentration of test product which inhibits by 50% the fixation of tritiated product R. The relative affinity of the test product (ARL) was determined by the formula [formula] and the results are reported in Table VI.

[2] = target: T2, prostatic androgenic reception of testosterone (androgen receptor, prostate cytosol) (Rattus norvegicus, UniProt P15207); assay: Androgenic activity: hormonal receptor method, displacement of tritiated 17α-methyl-Δ4,9,11-estratriene-17β-ol-3-one in prostate cytosol; type: binding
T2 construct: The prostate was recovered from male rats castrated 24 hours earlier and was homogenized; from tissue; host or cells: prostate cytosol (105,000 g supernatant) of male rats castrated 24 hours earlier
T2 sequence (P15207 1-902): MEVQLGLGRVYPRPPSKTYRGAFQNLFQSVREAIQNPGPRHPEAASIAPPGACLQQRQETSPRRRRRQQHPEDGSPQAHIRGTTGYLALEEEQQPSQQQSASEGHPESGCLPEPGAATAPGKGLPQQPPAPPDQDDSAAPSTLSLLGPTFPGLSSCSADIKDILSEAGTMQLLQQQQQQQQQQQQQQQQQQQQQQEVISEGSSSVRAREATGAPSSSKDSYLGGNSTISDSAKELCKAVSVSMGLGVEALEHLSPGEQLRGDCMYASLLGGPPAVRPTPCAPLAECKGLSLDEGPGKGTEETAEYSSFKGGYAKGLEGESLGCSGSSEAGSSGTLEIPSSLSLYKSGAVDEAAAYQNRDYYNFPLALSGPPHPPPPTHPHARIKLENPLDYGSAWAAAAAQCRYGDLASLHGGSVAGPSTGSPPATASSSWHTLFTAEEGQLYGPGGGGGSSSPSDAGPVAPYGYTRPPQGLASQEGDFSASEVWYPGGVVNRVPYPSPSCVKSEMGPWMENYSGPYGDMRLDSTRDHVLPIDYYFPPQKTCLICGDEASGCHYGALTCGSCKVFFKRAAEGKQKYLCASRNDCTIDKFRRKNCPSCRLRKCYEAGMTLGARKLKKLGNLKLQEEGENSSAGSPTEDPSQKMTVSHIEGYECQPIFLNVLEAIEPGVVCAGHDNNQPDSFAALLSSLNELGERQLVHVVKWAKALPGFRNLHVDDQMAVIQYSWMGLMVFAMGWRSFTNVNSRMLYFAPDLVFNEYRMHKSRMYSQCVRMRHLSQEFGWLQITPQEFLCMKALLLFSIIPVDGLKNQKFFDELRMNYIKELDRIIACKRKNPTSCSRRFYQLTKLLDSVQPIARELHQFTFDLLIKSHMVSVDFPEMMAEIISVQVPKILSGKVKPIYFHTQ
Protocol: This test also used the method of Raynaud et al discussed above. The prostate was recovered from male rats castrated 24 hours earlier and was homogenized in a buffer containing 10 mm of tromethamine and 0.25 M of saccharose and sufficient hydrochloric acid for a pH of 7.4. The homogenate was centrifuged at 105,000 g for one hour and the surnageant liquid or cytosol was adjusted to a dilution of 1/5 (weight/volume).
The radioactivity of the tied tritiated product was determined after 2 hours by absorption technique on carbon-dextran (1.25%-0.625%). […] [formula] were ploted. B/T max. is the percentage of tied tritiated product R when the product is not added and B/T min. is the percentage of tied tritiated product R when the maximum amount of cold product R is added.

Row | SMILES | affinity for uterine progesterone receptor compared with progesterone (in words) [1] | ARL (relative affinity of the test product) [1] | affinity for prostatic androgen receptor compared with testosterone (in words) ([2]; conclusion from Table VII) | ARL (relative affinity of the test product) ([2]; testosterone = 100, from CT and CX (concentrations inhibiting by 50% the fixation of tritiated product R), castrated rat prostate cytosol, 0° C., 2 hours)
1 | C#C[C@]1(O)CC[C@H]2[C@@H]3CCC4=CC(=O)CCC4=C3[C@@H](C=C)C[C@@]21C [Product C, 11β-vinyl-17α-ethynyl-Δ^4,9-estradiene-17β-ol-3-one] | greater affinity for specific uterine reception of progesterone than progesterone | 150 |  | 
2 | C=C(C)[C@H]1C[C@@]2(C)[C@@H](CC[C@]2(C)O)[C@@H]2CCC3=CC(=O)CCC3=C12 [Product D, 11β-isopropenyl-17α-methyl-Δ^4,9-estradiene-17β-ol-3-one] |  |  | affinity on the order of that of testosterone | 80
3 | C=C[C@H]1C[C@@]2(C)[C@@H](CC[C@]2(C)C(C)=O)[C@@H]2CCC3=CC(=O)CCC3=C21 [Product A, 11β-vinyl-17α-methyl-17β-acetyl-Δ^4,9-estradiene-3-one] | greater affinity for specific uterine reception of progesterone than progesterone | 160 |  | 
4 | C=C[C@H]1C[C@@]2(C)[C@@H](CC[C@]2(OC(C)=O)C(C)=O)[C@@H]2CCC3=CC(=O)CCC3=C21 [Product B, 11β-vinyl-17α-acetoxy-17β-acetyl-Δ^4,9-estradiene-3-one] | greater affinity for specific uterine reception of progesterone than progesterone | 120 |  | 
